Values after ≈ are worked out from the molar mass of the structure shown.
Tests used:
[1] = Solubility determination in oil (Table 10); conditions: thermodynamic from solid; for solubility thermodynamic: water, Equilibrium solubility: Water; for solubility at 24 h: 25 °C, Obs. Temp. 25 °C
Experimental: A known amount of test substance (˜40 mg) was weighed into the vial, 100 μL of oil was added and heated to 60° C. and then system was slurried to reach equilibrium. […] Extra oil was added into the vial once compound precipitated out and then the system was re-equilibrated at 1000 rpm at room temperature (25° C.). Final concentration was determined by HPLC method as described below in Table 6a and 6b.

[2] = Polymorph screening of solid state drug substances (Table 23); assay type: physicochemical; conditions: stirred 50 °C 72 hours; for Dry method and appearance: dried solid
[3] = 40 °C, oil or lipid, Approximate Solubility in Excipient: Cottonseed oil, Heating Temp. 40 °C, Obs. Temp. 40 °C
[4] = 40 °C, oil or lipid, Approximate Solubility in Excipient: Cottonseed oil, Heating Temp. 60 °C, Obs. Temp. 40 °C
[5] = 40 °C, oil or lipid, Approximate Solubility in Excipient: Sesame oil, Heating Temp. 40 °C, Obs. Temp. 40 °C
[6] = 40 °C, oil or lipid, Approximate Solubility in Excipient: Sesame oil, Heating Temp. 60 °C, Obs. Temp. 40 °C
[7] = 40 °C, organic solvent or mixture, Approximate Solubility in Excipient: Ethanol, Heating Temp. 40 °C, Obs. Temp. 40 °C
[8] = 40 °C, Heating Temp. 40 °C, Obs. Temp. 40 °C
[9] = after slurry in EtOAc, temperatures N/A
[10] = 40 °C, organic solvent or mixture, Approximate Solubility in Excipient: Ethanol, Heating Temp. 60 °C, Obs. Temp. 40 °C
[11] = 40 °C, Heating Temp. 60 °C, Obs. Temp. 40 °C
[12] = oil or lipid, Approximate Solubility in Excipient: Cottonseed oil, Heating Temp. 60 °C
[13] = oil or lipid, Approximate Solubility in Excipient: Sesame oil, Heating Temp. 60 °C

SMILES	solubility [1, 4] [mg/mL]	solubility [1, 6] [mg/mL]	solubility thermodynamic [1, 8] [µg/mL]	XRPD results (Dried) ([2]; Acetone)	Dry method and appearance ([2]; Acetone)	XRPD results (Dried) ([2]; EtOAc)	Dry method and appearance ([2]; EtOAc)	XRPD results (Dried) ([2]; Heptane)	Dry method and appearance ([2]; Heptane)	XRPD results (Dried) ([2]; Isopropanol)	Dry method and appearance ([2]; Isopropanol)	XRPD results (Dried) ([2]; MTBE)	Dry method and appearance ([2]; MTBE)	solubility thermodynamic [1, 11] [µg/mL]	solubility at 24 h [1, 12] [mg/mL]	solubility at 24 h [1, 13] [mg/mL]	further results
C=C1CC[C@@]2(O)C3Cc4ccc(OC(=O)CCCCCCCCCCCCCCCCCCCCC)c5c4[C@@]2(CCN3CC2CC2)[C@H]1O5 [Compound 14, (4aS,7aS,12bS)-3-(cyclopropylmethyl)-4a-hydroxy-7-methylene-2,3,4,4a,5,6,7,7a-octahydro-1H-4,12-methanobenzofuro[3,2-e]isoquinolin-9-yl docosanoate]	< 25	< 25	10 (≈ 0.0151 mM)	Pattern A	Evaporation/white powder	Pattern A	Evaporation/white powder	Pattern B	Centrifugation/white powder	Pattern A	Evaporation/white powder	Pattern A	Evaporation/white powder	–	–	–	solubility [1, 3]: < 50 mg/mL; solubility [1, 5]: < 51 mg/mL; solubility [1, 7]: 69 to 83 mg/mL (≈ 104 to 125 mM); solubility thermodynamic [1, 9]: < 0.5 µg/mL; solubility thermodynamic ([1]; after slurry in Heptane, temperatures N/A): < 0.5 µg/mL
CCCCCCCCCCCCCCCCOC(=O)Oc1ccc2c3c1O[C@H]1C(=O)CC[C@@]4(O)C(C2)N(CC2CC2)CC[C@]314 [Compound 21, (4aS,7aR,12bS)-3-(cyclopropylmethyl)-4a-hydroxy-7-oxo-2,3,4,4a,5,6,7,7a-octahydro-1H-4,12-methanobenzofuro[3,2-e]isoquinolin-9-yl hexadecyl carbonate]	101 to 135 (≈ 166 to 221 mM)	101 to 134 (≈ 166 to 221 mM)	–	Pattern A	Evaporation/white powder	Pattern A	Evaporation/white powder	Pattern A	Evaporation/white powder	Pattern A	Evaporation/white powder	Pattern A	Evaporation/white powder	0.6 (≈ 0.000984 mM)	–	–	solubility [1, 10]: 50 to 100 mg/mL (≈ 82 to 164 mM)
CCCCCCCCCCCCCCCC(=O)Oc1ccc2c3c1O[C@H]1C(=O)CC[C@@]4(O)C(C2)N(CC2CC2)CC[C@]314 [Compound 55, (4aS,7aR,12bS)-3-(cyclopropylmethyl)-4a-hydroxy-7-oxo-2,3,4,4a,5,6,7,7a-octahydro-1H-4,12-methanobenzofuro[3,2-e]isoquinolin-9-yl palmitate]	> 400	> 395	–	Pattern B	Evaporation/white powder	Pattern B	Evaporation/white powder	Pattern B	Evaporation/white powder	Pattern B	Evaporation/white powder	Pattern B	Evaporation/white powder	6.6 (≈ 0.0114 mM)	< 50	< 50	solubility [1, 10]: > 401 mg/mL; solubility thermodynamic [1, 9]: < 0.5 µg/mL
CCCCCCCCCCOC(=O)Oc1ccc2c3c1O[C@H]1C(=O)CC[C@@]4(O)C(C2)N(CC2CC2)CC[C@]314 [Compound 10, (4aS,7aR,12bS)-3-(cyclopropylmethyl)-4a-hydroxy-7-oxo-2,3,4,4a,5,6,7,7a-octahydro-1H-4,12-methanobenzofuro[3,2-e]isoquinolin-9-yl decyl carbonate]	–	–	–	Pattern A	Evaporation/White wax	Pattern A	Evaporation/White wax	Pattern A	Centrifugation/White wax	Pattern A	Evaporation/White wax	Pattern A	Evaporation/White wax	–	–	–	–
CCCCCCCCCCCC(=O)OCOc1ccc2c3c1O[C@H]1C(=O)CC[C@@]4(O)C(C2)N(CC2CC2)CC[C@]314 [Compound 48, (((4aS,7aR,12bS)-3-(cyclopropylmethyl)-4a-hydroxy-7-oxo-2,3,4,4a,5,6,7,7a-octahydro-1H-4,12-methanobenzofuro[3,2-e]isoquinolin-9-yl)oxy)methyl dodecanoate]	–	–	3 (≈ 0.00542 mM)	–	–	–	–	–	–	–	–	–	–	–	> 410	> 405	–
CCCCCCCCCCCCCCCCCCCC(=O)Oc1ccc2c3c1O[C@H]1C(=O)CC[C@@]4(O)C(C2)N(CC2CC2)CC[C@]314 [Compound 50, (4aS,7aR,12bS)-3-(cyclopropylmethyl)-4a-hydroxy-7-oxo-2,3,4,4a,5,6,7,7a-octahydro-1H-4,12-methanobenzofuro[3,2-e]isoquinolin-9-yl icosanoate]	–	–	< 1	–	–	–	–	–	–	–	–	–	–	–	< 51	< 52	–
CCCCCCCCCCCCCCCCCC(=O)Oc1ccc2c3c1O[C@H]1C(=O)CC[C@@]4(O)C(C2)N(CC2CC2)CC[C@]314 [Compound 54, (4aS,7aR,12bS)-3-(cyclopropylmethyl)-4a-hydroxy-7-oxo-2,3,4,4a,5,6,7,7a-octahydro-1H-4,12-methanobenzofuro[3,2-e]isoquinolin-9-yl stearate]	–	–	< 1	–	–	–	–	–	–	–	–	–	–	–	< 51	< 50	–
CCCCCCCCCCCCCCC(=O)Oc1ccc2c3c1O[C@H]1C(=O)CC[C@@]4(O)C(C2)N(CC2CC2)CC[C@]314 [Compound 58, (4aS,7aR,12bS)-3-(cyclopropylmethyl)-4a-hydroxy-7-oxo-2,3,4,4a,5,6,7,7a-octahydro-1H-4,12-methanobenzofuro[3,2-e]isoquinolin-9-yl pentadecanoate]	–	–	1.4 (≈ 0.00247 mM)	–	–	–	–	–	–	–	–	–	–	–	102 to 204 (≈ 180 to 360 mM)	99.4 to 199 (≈ 176 to 351 mM)	–
C=C1CC[C@@]2(O)C3Cc4ccc(OC(=O)CCCCCCC/C=C\C/C=C\CCCCC)c5c4[C@@]2(CCN3CC2CC2)[C@H]1O5 [Compound 37, (4aS,7aS,12bS)-3-(cyclopropylmethyl)-4a-hydroxy-7-methylene-2,3,4,4a,5,6,7,7a-octahydro-1H-4,12-methanobenzofuro[3,2-e]isoquinolin-9-yl (9Z,12Z)-octadeca-9,12-dienoate]	–	–	2 (≈ 0.00332 mM)	–	–	–	–	–	–	–	–	–	–	–	68.5 to 82 (≈ 114 to 136 mM)	80 to 102 (≈ 133 to 169 mM)	solubility ([1]; 40 °C, oil or lipid, Approximate Solubility in Excipient: Castor oil, Heating Temp. 40 °C, Obs. Temp. 40 °C): > 226 mg/mL; solubility [1, 3]: > 405 mg/mL; solubility [1, 5]: > 408 mg/mL; solubility [1, 7]: 75 to 90 mg/mL (≈ 125 to 150 mM)
C=C1CC[C@@]2(O)C3Cc4ccc(OC(=O)OCCCCCCCCCCCCCCCCCC)c5c4[C@@]2(CCN3CC2CC2)[C@H]1O5 [Compound 33, (4aS,7aS,12bS)-3-(cyclopropylmethyl)-4a-hydroxy-7-methylene-2,3,4,4a,5,6,7,7a-octahydro-1H-4,12-methanobenzofuro[3,2-e]isoquinolin-9-yl octadecyl carbonate]	–	–	< 1	–	–	–	–	–	–	–	–	–	–	–	< 50	< 51	–
CC(C)(C)CC(=O)Oc1ccc2c3c1O[C@H]1C(=O)CC[C@@]4(O)C(C2)N(CC2CC2)CC[C@]314 [Compound 42, (4aS,7aR,12bS)-3-(cyclopropylmethyl)-4a-hydroxy-7-oxo-2,3,4,4a,5,6,7,7a-octahydro-1H-4,12-methanobenzofuro[3,2-e]isoquinolin-9-yl 3,3-dimethylbutanoate]	< 26	< 25.8	245 (≈ 0.557 mM)	–	–	–	–	–	–	–	–	–	–	68 (≈ 0.155 mM)	–	–	solubility [1, 3]: < 51 mg/mL; solubility [1, 5]: < 52 mg/mL; solubility [1, 7]: 78 to 93 mg/mL (≈ 177 to 212 mM)
CCCCCCCC/C=C\CCCCCCCCCCCC(=O)Oc1ccc2c3c1O[C@H]1C(=O)CC[C@@]4(O)C(C2)N(CC2CC2)CC[C@]314 [Compound 22, (4aS,7aR,12bS)-3-(cyclopropylmethyl)-4a-hydroxy-7-oxo-2,3,4,4a,5,6,7,7a-octahydro-1H-4,12-methanobenzofuro[3,2-e]isoquinolin-9-yl (Z)-docos-13-enoate]	> 406	> 402	–	–	–	–	–	–	–	–	–	–	–	31.4 (≈ 0.0474 mM)	67 to 80 (≈ 101 to 121 mM)	67 to 80 (≈ 101 to 121 mM)	solubility [1, 10]: > 398 mg/mL

Source: patent US20190308988A1, “OPIOID RECEPTOR ANTAGONIST PRODRUGS” (Nirsum Laboratories, Inc., priority 2017, published 2019)
